The source of these data is PubChem BioAssay AID1259407 (Chemical Carcinogenesis Research Information System (CCRIS), 2018).

The source made the active and inactive calls. No rule for the calls is given here.

The test system of the data set is CCRIS mutagenicity, Ames/micronucleus/aberration tests. Kind of data set: CCRIS mutagenicity studies.
[1] abbreviates: Test System: AMES SALMONELLA TYPHIMURIUM, Strain/Indicator: TA98, Metabolic Activation: NONE, Method: PREINCUBATION
Setting [2] is: Test System: AMES SALMONELLA TYPHIMURIUM, Strain/Indicator: TA100, Metabolic Activation: NONE, Method: PREINCUBATION
The mark [3] stands for this setting: Test System: AMES SALMONELLA TYPHIMURIUM, Strain/Indicator: TA1535, Metabolic Activation: NONE, Method: PREINCUBATION
[4] abbreviates: Test System: AMES SALMONELLA TYPHIMURIUM, Strain/Indicator: TA1537, Metabolic Activation: NONE, Method: PREINCUBATION
The mark [5] stands for this setting: Test System: AMES SALMONELLA TYPHIMURIUM, Strain/Indicator: TA98, Metabolic Activation: NONE, Method: STANDARD PLATE.
The mark [6] stands for this setting: Test System: AMES SALMONELLA TYPHIMURIUM, Strain/Indicator: TA98, Metabolic Activation: RAT, LIVER, S-9, AROCLOR 1254, Method: STANDARD PLATE.
Where [7] appears, read: Test System: AMES SALMONELLA TYPHIMURIUM, Strain/Indicator: TA100, Metabolic Activation: NONE, Method: STANDARD PLATE.
The mark [8] stands for this setting: Test System: AMES SALMONELLA TYPHIMURIUM, Strain/Indicator: TA100, Metabolic Activation: RAT, LIVER, S-9, AROCLOR 1254, Method: STANDARD PLATE.
Where [9] appears, read: Test System: AMES SALMONELLA TYPHIMURIUM, Strain/Indicator: TA1538, Metabolic Activation: RAT, LIVER, S-9, AROCLOR 1254, Method: STANDARD PLATE.
[10] abbreviates: Test System: AMES SALMONELLA TYPHIMURIUM, Strain/Indicator: TA98, Metabolic Activation: RAT, LIVER, S-9, AROCLOR 1254, Method: PREINCUBATION
The mark [11] stands for this setting: Test System: AMES SALMONELLA TYPHIMURIUM, Strain/Indicator: TA100, Metabolic Activation: RAT, LIVER, S-9, AROCLOR 1254, Method: PREINCUBATION

In the case of `CCCCCCCCOC(=O)c1ccccc1C(=O)OCCCCCCCC`, the mutagenic call runs as follows: (Test System: AMES SALMONELLA TYPHIMURIUM, Strain/Indicator: TA98, Metabolic Activation: HAMSTER, LIVER, S-9, AROCLOR 1254 (10%), Method: PREINCUBATION) “inactive; negative”; under setting [1], “inactive; negative”; (Test System: AMES SALMONELLA TYPHIMURIUM, Strain/Indicator: TA98, Metabolic Activation: RAT, LIVER, S-9, AROCLOR 1254 (10%), Method: PREINCUBATION) “inactive; negative”; (Test System: AMES SALMONELLA TYPHIMURIUM, Strain/Indicator: TA100, Metabolic Activation: HAMSTER, LIVER, S-9, AROCLOR 1254 (10%), Method: PREINCUBATION) “inactive; negative”; under setting [2], “inactive; negative”; (Test System: AMES SALMONELLA TYPHIMURIUM, Strain/Indicator: TA100, Metabolic Activation: RAT, LIVER, S-9, AROCLOR 1254 (10%), Method: PREINCUBATION) “inactive; negative”. The mutagenic call (Test System: AMES SALMONELLA TYPHIMURIUM, Strain/Indicator: TA1535, Metabolic Activation: HAMSTER, LIVER, S-9, AROCLOR 1254 (10%), Method: PREINCUBATION) was “inactive; negative”; the mutagenic call under setting [3] was “inactive; negative”; the mutagenic call (Test System: AMES SALMONELLA TYPHIMURIUM, Strain/Indicator: TA1535, Metabolic Activation: RAT, LIVER, S-9, AROCLOR 1254 (10%), Method: PREINCUBATION) was “inactive; negative”; the mutagenic call (Test System: AMES SALMONELLA TYPHIMURIUM, Strain/Indicator: TA1537, Metabolic Activation: HAMSTER, LIVER, S-9, AROCLOR 1254 (10%), Method: PREINCUBATION) was “inactive; negative”; the mutagenic call under setting [4] is “inactive; negative”; the mutagenic call (Test System: AMES SALMONELLA TYPHIMURIUM, Strain/Indicator: TA1537, Metabolic Activation: RAT, LIVER, S-9, AROCLOR 1254 (10%), Method: PREINCUBATION) was “inactive; negative”.

On to `CCOc1cc(N=Nc2ccc(N(CCO)CCO)cc2)ccc1N=Nc1c(S(=O)(=O)O)cc2ccc(N)cc2c1O`, for which the mutagenic call under setting [5] is “inactive; negative”; the mutagenic call under setting [6] is “active; positive”; the mutagenic call under setting [7] is “inactive; negative”; the mutagenic call under setting [8] is “inactive; negative”; the mutagenic call under setting [9] was “active; positive”.

Consider `C[C@H]1CCC[C@@]2(C)CCCC[C@]12O`, for which the mutagenic call under setting [5] is “inactive; negative”, the mutagenic call under setting [6] was “inactive; negative”, the mutagenic call under setting [7] is “inactive; negative” and the mutagenic call under setting [8] is “inactive; negative”.

Turning to `Fc1c(F)c(F)c(Cl)c(F)c1F`, the mutagenic call by setting is: under setting [1], “inactive; negative”; under setting [5], “inactive; negative”; under setting [10], “inactive; negative”; under setting [6], “inactive; negative”; under setting [2], “inactive; negative”; under setting [7], “inactive; negative”. Besides, the mutagenic call is “inactive; negative” under setting [11]; “inactive; negative” under setting [8]; “inactive; negative” under setting [3]; “inactive; negative” (Test System: AMES SALMONELLA TYPHIMURIUM, Strain/Indicator: TA1535, Metabolic Activation: NONE, Method: STANDARD PLATE); “inactive; negative” (Test System: AMES SALMONELLA TYPHIMURIUM, Strain/Indicator: TA1535, Metabolic Activation: RAT, LIVER, S-9, AROCLOR 1254, Method: PREINCUBATION); “inactive; negative” (Test System: AMES SALMONELLA TYPHIMURIUM, Strain/Indicator: TA1535, Metabolic Activation: RAT, LIVER, S-9, AROCLOR 1254, Method: STANDARD PLATE). For the same molecule, the mutagenic call reads like this: under setting [4], “inactive; negative”; (Test System: AMES SALMONELLA TYPHIMURIUM, Strain/Indicator: TA1537, Metabolic Activation: NONE, Method: STANDARD PLATE) “inactive; negative”; (Test System: AMES SALMONELLA TYPHIMURIUM, Strain/Indicator: TA1537, Metabolic Activation: RAT, LIVER, S-9, AROCLOR 1254, Method: PREINCUBATION) “inactive; negative”; (Test System: AMES SALMONELLA TYPHIMURIUM, Strain/Indicator: TA1537, Metabolic Activation: RAT, LIVER, S-9, AROCLOR 1254, Method: STANDARD PLATE) “inactive; negative”; (Test System: AMES SALMONELLA TYPHIMURIUM, Strain/Indicator: TA1538, Metabolic Activation: NONE, Method: PREINCUBATION) “inactive; negative”; (Test System: AMES SALMONELLA TYPHIMURIUM, Strain/Indicator: TA1538, Metabolic Activation: NONE, Method: STANDARD PLATE) “inactive; negative”. In addition, the mutagenic call is, setting by setting: (Test System: AMES SALMONELLA TYPHIMURIUM, Strain/Indicator: TA1538, Metabolic Activation: RAT, LIVER, S-9, AROCLOR 1254, Method: PREINCUBATION) “inactive; negative”; under setting [9], “inactive; negative”; (Test System: CHINESE HAMSTER OVARY, Strain/Indicator: CHO (HGPRT), Metabolic Activation: NONE) “inactive; negative”; (Test System: CHINESE HAMSTER OVARY, Strain/Indicator: CHO (HGPRT), Metabolic Activation: RAT, LIVER, S-9, AROCLOR 1254) “inactive; negative”; (Test System: CHINESE HAMSTER OVARY, Strain/Indicator: CHO-K1-BH4 (HGPRT)/6-THIOGUANINE, Metabolic Activation: NONE, Method: SUSPENSION/PLATE) “inactive; negative”; (Test System: CHINESE HAMSTER OVARY, Strain/Indicator: CHO-K1-BH4 (HGPRT)/6-THIOGUANINE, Metabolic Activation: RAT, LIVER, S-9, AROCLOR 1254, Method: SUSPENSION/PLATE) “inactive; negative”. Besides, the mutagenic call reads like this: (Test System: CHO/HGPRT, Strain/Indicator: CHO-K1-BH4, Metabolic Activation: NONE, Method: SUSPENSION/PLATE) “inactive; negative”; (Test System: CHO/HGPRT, Strain/Indicator: CHO-K1-BH4, Metabolic Activation: RAT, LIVER, S-9, AROCLOR 1254, Method: SUSPENSION/PLATE) “inactive; negative”; (Test System: UDS RAT PRIMARY HEPATOCYTES, Strain/Indicator: THY INCORP, Metabolic Activation: NONE, Method: IN VIVO-IN VITRO) “inactive; negative”; (Test System: UDS RODENT HEPATOCYTES, Strain/Indicator: THY INCORP (NON-S-PHASE), Metabolic Activation: NONE) “inactive; negative”.

Turning to `CC1=C(O)C(=O)CC1`, the mutagenic call is “inactive; negative” under setting [1]; “inactive; negative” under setting [10]; “inactive; negative” under setting [2]; “inactive; negative” under setting [11]; “inactive; negative” (Test System: AMES SALMONELLA TYPHIMURIUM, Strain/Indicator: TA102, Metabolic Activation: NONE, Method: PREINCUBATION); “inactive; negative” (Test System: AMES SALMONELLA TYPHIMURIUM, Strain/Indicator: TA102, Metabolic Activation: RAT, LIVER, S-9, AROCLOR 1254, Method: PREINCUBATION).

Consider `CCCC(=O)N=c1sn(C(=O)CCC)c2ccc([N+](=O)[O-])cc12`, for which the mutagenic call (Test System: AMES SALMONELLA TYPHIMURIUM, Strain/Indicator: TA100, Metabolic Activation: S-9, Method: STANDARD PLATE) was “active; positive”.

For the molecule `COc1cc(N)ccc1NC(C)=O`, the mutagenic call runs as follows: under setting [5], “inactive; negative”; under setting [6], “active; positive”.

As for `CC(Cl)CO` (centres undefined), the mutagenic call is “active; positive” (Test System: AMES SALMONELLA TYPHIMURIUM, Strain/Indicator: TA1530, Metabolic Activation: NONE, Method: STANDARD PLATE) and “active; positive” (Test System: AMES SALMONELLA TYPHIMURIUM, Strain/Indicator: TA1535, Metabolic Activation: RAT, LIVER, S-9, PCB, Method: STANDARD PLATE).

`Cc1ccccc1-c1ccc(N)cc1`: the mutagenic call is “inactive; negative” under setting [5], “active; positive” under setting [6], “inactive; negative” under setting [7] and “active; positive” under setting [8].
